Laboratory results published in ChEMBL document CHEMBL1201862, “PubChem BioAssay data set” (2004).
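Assay format: 96-well plates, 48-hour exposure. GI50 = concentration required for 50% inhibition of growth.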 Active and inactive are the calls of the source. Rule as the data show it: active = GI50 up to about 1.1 µM and inactive = higher.

How the values were obtained:
Experiment in all cases: NCI-60 cell line screen, 48 h
[1] = tested on: 786-0
[2] = tested on: A498
[3] = tested on: HCT-116
[4] = tested on: HCT-15
[5] = tested on: HL-60
[6] = tested on: HT-29
[7] = tested on: Hs-578T
[8] = tested on: IGROV-1
[9] = tested on: MCF7
[10] = tested on: NCI-H226
[11] = tested on: NCI-H23
[12] = tested on: NCI-H522
[13] = tested on: OVCAR-3
[14] = tested on: SF-295
[15] = tested on: SK-MEL-28
[16] = tested on: SK-MEL-2
[17] = tested on: SK-MEL-5
[18] = tested on: SR
[19] = tested on: TK-10
[20] = tested on: UACC-257

Structure (SMILES) | GI50 [1] | GI50 [2] | GI50 [3] | GI50 [4] | GI50 [5] | GI50 [6] | GI50 [7] | GI50 [8] | GI50 [9] | GI50 [10] | GI50 [11] | GI50 [12] | GI50 [13] | GI50 [14] | GI50 [15] | GI50 [16] | GI50 [17] | GI50 [18] | GI50 [19] | GI50 [20]
COc1cc2nc(-c3ccccc3)cc(O)c2cc1OC | 27.8 µM (inactive) | 40.6 µM (inactive) | 6.1 µM (inactive) | 10.2 µM | 5.78 µM (inactive) | 9.84 µM (inactive) | 25.1 µM (inactive) | 28.2 µM (inactive) | 2.54 µM (inactive) | 14.4 µM (inactive) | 21.8 µM (inactive) | 5.83 µM (inactive) | 4.44 µM (inactive) | 18.5 µM (inactive) | 36.2 µM (inactive) | 22.4 µM (inactive) | 5.78 µM (inactive) | 6 µM (inactive) | 55.8 µM (inactive) | 63.7 µM (inactive)
CO/N=C(\C)c1ccc(Nc2c3ccccc3nc3occc23)cc1 | 0.74 µM (active) | 0.773 µM (active) | 0.374 µM (active) | 0.191 µM | 0.254 µM (active) | 0.284 µM (active) | 0.482 µM (active) | 0.233 µM (active) | 0.168 µM (active) | 4.34 µM (inactive) | 2.36 µM (inactive) | < 0.0317 µM (active) | 0.284 µM (active) | 0.207 µM (active) | 1.43 µM (inactive) | 0.244 µM (active) | 0.323 µM (active) | 0.0373 µM (active) | 1.21 µM (inactive) | 14.3 µM (inactive)
Cc1ccc(NC(=O)c2cccc(OP(=O)(Nc3ccc(C)cc3)Nc3ccc(C)cc3)c2)cc1 | 19.9 µM (inactive) | 18.1 µM (inactive) | 4.18 µM (inactive) | 6.01 µM | 9.95 µM (inactive) | 3.5 µM (inactive) | 6.3 µM (inactive) | 15.1 µM (inactive) | 5.62 µM (inactive) | 8.04 µM (inactive) | 10.9 µM (inactive) | 2.78 µM (inactive) | 5.83 µM (inactive) | 7.13 µM (inactive) | 29.9 µM (inactive) | 15.3 µM (inactive) | 13.2 µM (inactive) | 3.4 µM (inactive) | 7.52 µM (inactive) | 11.9 µM (inactive)
C=C1C(=O)OC2/C=C(CO)/C=C\C3OC3(C)CC(OC(=O)/C(C)=C/COC(C)=O)C12 (stereo not given) | 1.97 µM (inactive) | 7.43 µM (inactive) | 1.5 µM (inactive) | 1.87 µM | 0.34 µM (active) | 2.52 µM (inactive) | 3.08 µM (inactive) | 7.8 µM (inactive) | 3.15 µM (inactive) | 12.2 µM (inactive) | 3.08 µM (inactive) | 0.692 µM (active) | 2.46 µM (inactive) | 14.8 µM (inactive) | 1.73 µM (inactive) | 3.75 µM (inactive) | 5 µM (inactive) | 0.56 µM (active) | 5.16 µM (inactive) | 2.37 µM (inactive)
CCCCC(=O)OC[n+]1ccc(-c2c(COC(=O)NC(C)C)c(COC(=O)NC(C)C)c3n2CCC3)cc1 | 39.4 µM (inactive) | 23.9 µM (inactive) | > 94.8 µM (inactive) | > 100 µM | 25.5 µM (inactive) | > 76 µM (inactive) | > 100 µM (inactive) | > 100 µM (inactive) | 50.8 µM (inactive) | > 100 µM (inactive) | 53.6 µM (inactive) | 30.5 µM (inactive) | > 100 µM (inactive) | > 76.2 µM (inactive) | > 100 µM (inactive) | > 100 µM (inactive) | > 100 µM (inactive) | 10 µM (inactive) | > 100 µM (inactive) | > 100 µM (inactive)
COC(OC)(c1ccccc1)C(I)I | 8.36 µM (inactive) | > 10 µM (inactive) | 4.91 µM (inactive) | 6.61 µM | 2 µM (inactive) | 15 µM (inactive) | 20.1 µM (inactive) | 13.9 µM (inactive) | 18.7 µM (inactive) | 20.8 µM (inactive) | 19.2 µM (inactive) | 2.5 µM (inactive) | 15.3 µM (inactive) | 22.8 µM (inactive) | 16.1 µM (inactive) | 13.8 µM (inactive) | 8.61 µM (inactive) | 2.04 µM (inactive) | 13.3 µM (inactive) | 3.45 µM (inactive)
N=C(N)N/N=C/c1nc2sccn2c1[N+](=O)[O-] | 43 µM (inactive) | 56.1 µM (inactive) | 22.4 µM (inactive) | 47.8 µM | 6.58 µM (inactive) | 26.2 µM (inactive) | 24.7 µM (inactive) | 60.4 µM (inactive) | 18 µM (inactive) | 81.1 µM (inactive) | 18.1 µM (inactive) | 21.6 µM (inactive) | 17.9 µM (inactive) | 33.3 µM (inactive) | > 100 µM (inactive) | 19 µM (inactive) | 18.7 µM (inactive) | 33.2 µM (inactive) | 85.3 µM (inactive) | 16.3 µM (inactive)
COc1cc(C2SCC(=O)N2c2ccccc2Cl)cc(OC)c1OC (stereo not given) | > 100 µM (inactive) | > 100 µM (inactive) | > 100 µM (inactive) | > 100 µM | 37.8 µM (inactive) | > 100 µM (inactive) | > 100 µM (inactive) | > 100 µM (inactive) | 62.1 µM (inactive) | > 100 µM (inactive) | > 100 µM (inactive) | 65.8 µM (inactive) | > 100 µM (inactive) | > 100 µM (inactive) | > 100 µM (inactive) | > 100 µM (inactive) | 92 µM (inactive) | 43.1 µM (inactive) | > 100 µM (inactive) | > 100 µM (inactive)
COc1ccc2cc(NC(=O)Nn3cnnc3)ccc2c1 | > 100 µM (inactive) | > 100 µM (inactive) | > 100 µM (inactive) | > 100 µM | > 100 µM (inactive) | > 100 µM (inactive) | > 100 µM (inactive) | > 100 µM (inactive) | > 100 µM (inactive) | > 100 µM (inactive) | > 100 µM (inactive) | > 100 µM (inactive) | > 100 µM (inactive) | > 100 µM (inactive) | > 100 µM (inactive) | > 100 µM (inactive) | > 100 µM (inactive) | > 100 µM (inactive) | > 100 µM (inactive) | > 100 µM (inactive)
CN(NC(=O)c1cccs1)C1=NCCN1 | > 100 µM (inactive) | > 100 µM (inactive) | > 100 µM (inactive) | > 100 µM | > 100 µM (inactive) | > 100 µM (inactive) | > 100 µM (inactive) | > 100 µM (inactive) | > 100 µM (inactive) | > 100 µM (inactive) | > 100 µM (inactive) | > 100 µM (inactive) | > 100 µM (inactive) | > 100 µM (inactive) | > 100 µM (inactive) | > 100 µM (inactive) | > 100 µM (inactive) | > 100 µM (inactive) | 23.8 µM (inactive) | > 100 µM (inactive)
O=c1c2ccccc2n2cnc3ccc(NCCNCCO)c1c32 | 0.889 µM (active) | 1.71 µM (inactive) | 0.798 µM (active) | 3.18 µM | 2.42 µM (inactive) | 1.06 µM (active) | 2.37 µM (inactive) | 1.91 µM (inactive) | 2.52 µM (inactive) | 1.29 µM (inactive) | 2.16 µM (inactive) | 1.49 µM (inactive) | 2.19 µM (inactive) | 1.83 µM (inactive) | 3.18 µM (inactive) | 3.03 µM (inactive) | 1.88 µM (inactive) | 0.467 µM (active) | 2.92 µM (inactive) | 3.37 µM (inactive)
Fc1ccc(/N=N/N2CCCC2)cc1 | > 100 µM (inactive) | > 100 µM (inactive) | 85.7 µM (inactive) | 25.2 µM | 50.4 µM (inactive) | > 100 µM (inactive) | > 100 µM (inactive) | 82.4 µM (inactive) | 77.8 µM (inactive) | > 100 µM (inactive) | > 100 µM (inactive) | > 100 µM (inactive) | > 100 µM (inactive) | 8.04 µM (inactive) | 94 µM (inactive) | > 100 µM (inactive) | 33.9 µM (inactive) | 28.4 µM (inactive) | 62.4 µM (inactive) | 57.4 µM (inactive)
N=C1CCCC1C(=S)SCCC(N)=O (stereo not given) | > 100 µM (inactive) | > 100 µM (inactive) | > 100 µM (inactive) | > 100 µM | > 100 µM (inactive) | > 100 µM (inactive) | > 100 µM (inactive) | > 100 µM (inactive) | > 100 µM (inactive) | > 100 µM (inactive) | > 100 µM (inactive) | > 100 µM (inactive) | > 100 µM (inactive) | > 100 µM (inactive) | > 100 µM (inactive) | > 100 µM (inactive) | > 100 µM (inactive) | 19.3 µM (inactive) | > 100 µM (inactive) | > 100 µM (inactive)
O=C(/C=C/c1ccccc1Br)c1ccccc1 | 2.07 µM (inactive) | 3.39 µM (inactive) | 1.89 µM (inactive) | 2.11 µM | 1.35 µM (inactive) | 3.03 µM (inactive) | 5.02 µM (inactive) | 2.99 µM (inactive) | 0.427 µM (active) | 17.1 µM (inactive) | 4.39 µM (inactive) | 2.65 µM (inactive) | 10.4 µM (inactive) | 11.3 µM (inactive) | 3.69 µM (inactive) | 15.7 µM (inactive) | 9.31 µM (inactive) | 2.18 µM (inactive) | 2.17 µM (inactive) | 9.68 µM (inactive)
